# Reference: patent publication US20250136595A1, “ACYLATED HETEROCYCLIC QUINAZOLINE DERIVATIVES AS INHIBITORS OF ERBB2” (Enliven Inc., priority 2022, published 2025)
# Tests used:
# Ba/F3 ERBB2 YVMA = Ba/F3 ERBB2 YVMA (Homo sapiens, UniProt P04626, DUP772-775, cells depend on it); assay: Cell viability assay (CellTiter Glo) in Ba/F3 cells engineered to express ERBB2 YVMA; format: cell-based, mouse; conditions: Ba/F3 cells expressing human ERBB2 YVMA mutant, 72 hours, % viability, read-out: Ba/F3 ERBB2 YVMA IC50
# Sequence of Ba/F3 ERBB2 YVMA (P04626 with tags, fused parts or gaps DUP772-775): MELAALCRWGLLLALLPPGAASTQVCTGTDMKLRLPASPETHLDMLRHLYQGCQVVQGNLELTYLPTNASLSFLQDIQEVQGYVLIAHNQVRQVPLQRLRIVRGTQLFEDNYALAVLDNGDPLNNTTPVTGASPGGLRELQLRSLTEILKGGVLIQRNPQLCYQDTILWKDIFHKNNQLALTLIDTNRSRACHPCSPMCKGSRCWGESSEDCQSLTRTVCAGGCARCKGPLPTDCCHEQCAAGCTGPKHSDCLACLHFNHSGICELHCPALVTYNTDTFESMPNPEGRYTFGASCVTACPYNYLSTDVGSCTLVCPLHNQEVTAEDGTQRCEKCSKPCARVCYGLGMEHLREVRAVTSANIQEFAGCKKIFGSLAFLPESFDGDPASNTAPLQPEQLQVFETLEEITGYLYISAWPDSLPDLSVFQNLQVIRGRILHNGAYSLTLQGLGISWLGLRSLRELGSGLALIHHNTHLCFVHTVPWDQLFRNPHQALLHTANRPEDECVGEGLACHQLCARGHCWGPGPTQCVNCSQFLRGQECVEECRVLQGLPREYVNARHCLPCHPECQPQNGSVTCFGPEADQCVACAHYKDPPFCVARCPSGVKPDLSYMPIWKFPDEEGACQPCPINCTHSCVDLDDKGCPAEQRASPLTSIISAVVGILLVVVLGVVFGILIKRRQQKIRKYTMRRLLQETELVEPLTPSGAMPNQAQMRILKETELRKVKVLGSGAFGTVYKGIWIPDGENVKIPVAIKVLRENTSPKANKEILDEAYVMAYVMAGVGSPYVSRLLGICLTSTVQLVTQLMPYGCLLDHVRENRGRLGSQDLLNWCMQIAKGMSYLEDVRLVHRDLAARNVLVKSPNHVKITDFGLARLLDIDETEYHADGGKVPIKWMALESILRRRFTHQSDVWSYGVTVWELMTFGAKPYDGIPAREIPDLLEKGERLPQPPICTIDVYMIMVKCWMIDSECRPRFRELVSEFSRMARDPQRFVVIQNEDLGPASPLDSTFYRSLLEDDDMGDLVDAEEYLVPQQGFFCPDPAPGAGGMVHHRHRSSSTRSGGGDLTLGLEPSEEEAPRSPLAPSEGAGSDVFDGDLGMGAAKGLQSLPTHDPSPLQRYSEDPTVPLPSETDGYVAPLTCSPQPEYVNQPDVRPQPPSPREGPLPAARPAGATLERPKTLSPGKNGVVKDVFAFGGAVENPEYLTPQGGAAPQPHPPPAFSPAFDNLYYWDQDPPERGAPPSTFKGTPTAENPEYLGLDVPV
# Procedure, shortened: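 IL-3-independent mouse Ba/F3 line stably transduced with human ERBB2 YVMA, seeded at 3000 cells/well, exposed to serially diluted compound (≤0.1% DMSO) for 72 h at 37° C. ATP read by CellTiter Glo luminescence, normalised to DMSO and media-only controls; sigmoidal nonlinear regression fit.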
# [1] = biological target: T1, phosphorylated EGFR (pEGFR) (Homo sapiens, UniProt P00533); assay: Detection of phosphorylated EGFR (pEGFR) in EGF-stimulated A431 cells (AlphaLISA); format: cell-based; conditions: A431 cells (10% FBS), 4 hours incubation, EGF 30 ng/mL for 10 minutes
# T1 construct: performed to measure phosphorylated EGFR levels using A431 cells; endogenous in cells; host or cells: A431
# T1 sequence (P00533 25-1210): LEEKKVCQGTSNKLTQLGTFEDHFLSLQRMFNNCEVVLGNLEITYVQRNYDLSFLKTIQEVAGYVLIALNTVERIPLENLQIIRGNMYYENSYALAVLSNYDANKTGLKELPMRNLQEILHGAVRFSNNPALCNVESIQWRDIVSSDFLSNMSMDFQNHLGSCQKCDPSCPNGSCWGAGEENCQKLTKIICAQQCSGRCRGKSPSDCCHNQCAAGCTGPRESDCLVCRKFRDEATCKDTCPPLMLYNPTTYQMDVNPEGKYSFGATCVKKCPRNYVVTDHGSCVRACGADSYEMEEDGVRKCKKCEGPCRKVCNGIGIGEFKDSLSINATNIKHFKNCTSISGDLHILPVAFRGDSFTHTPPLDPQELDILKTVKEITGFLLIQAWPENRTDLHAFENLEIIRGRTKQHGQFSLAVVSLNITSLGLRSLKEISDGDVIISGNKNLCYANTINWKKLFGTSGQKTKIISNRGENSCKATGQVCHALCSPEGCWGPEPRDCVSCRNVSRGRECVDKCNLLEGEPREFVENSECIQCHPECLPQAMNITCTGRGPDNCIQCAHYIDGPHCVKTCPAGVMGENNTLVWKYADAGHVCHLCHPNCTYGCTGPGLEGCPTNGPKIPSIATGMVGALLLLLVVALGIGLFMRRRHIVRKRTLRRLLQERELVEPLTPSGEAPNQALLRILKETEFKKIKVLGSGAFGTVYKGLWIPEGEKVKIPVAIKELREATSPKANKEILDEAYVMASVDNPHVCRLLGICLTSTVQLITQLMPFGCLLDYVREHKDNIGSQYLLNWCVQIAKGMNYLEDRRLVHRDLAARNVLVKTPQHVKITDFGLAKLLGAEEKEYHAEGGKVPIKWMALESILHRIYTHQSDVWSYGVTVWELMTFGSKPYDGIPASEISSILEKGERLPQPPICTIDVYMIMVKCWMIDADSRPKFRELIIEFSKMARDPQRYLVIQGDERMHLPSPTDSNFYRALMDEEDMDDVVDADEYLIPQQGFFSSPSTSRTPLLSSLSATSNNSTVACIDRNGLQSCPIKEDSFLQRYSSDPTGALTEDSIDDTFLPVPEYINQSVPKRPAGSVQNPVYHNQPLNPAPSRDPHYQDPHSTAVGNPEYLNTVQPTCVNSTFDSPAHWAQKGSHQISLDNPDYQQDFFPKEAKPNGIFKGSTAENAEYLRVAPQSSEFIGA
# Procedure, shortened: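 Cells in 10% FBS treated with compound 4 h at 37° C., then stimulated 10 min with 30 ng/mL EGF, lysed, and pEGFR measured by AlphaLISA. Inhibition normalized to DMSO and staurosporine controls; IC50 from four-parameter logistic fit.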
# [2] = biological target: T2, phosphorylated ERBB2 (pERBB2) (Homo sapiens, UniProt P04626); assay: Detection of phosphorylated ERBB2 (pERBB2) by ELISA in BT-474 cells; format: cell-based; conditions: four hour incubation with compound
# T2 construct: endogenous in cells; host or cells: BT-474
# T2 sequence (P04626 23-1255): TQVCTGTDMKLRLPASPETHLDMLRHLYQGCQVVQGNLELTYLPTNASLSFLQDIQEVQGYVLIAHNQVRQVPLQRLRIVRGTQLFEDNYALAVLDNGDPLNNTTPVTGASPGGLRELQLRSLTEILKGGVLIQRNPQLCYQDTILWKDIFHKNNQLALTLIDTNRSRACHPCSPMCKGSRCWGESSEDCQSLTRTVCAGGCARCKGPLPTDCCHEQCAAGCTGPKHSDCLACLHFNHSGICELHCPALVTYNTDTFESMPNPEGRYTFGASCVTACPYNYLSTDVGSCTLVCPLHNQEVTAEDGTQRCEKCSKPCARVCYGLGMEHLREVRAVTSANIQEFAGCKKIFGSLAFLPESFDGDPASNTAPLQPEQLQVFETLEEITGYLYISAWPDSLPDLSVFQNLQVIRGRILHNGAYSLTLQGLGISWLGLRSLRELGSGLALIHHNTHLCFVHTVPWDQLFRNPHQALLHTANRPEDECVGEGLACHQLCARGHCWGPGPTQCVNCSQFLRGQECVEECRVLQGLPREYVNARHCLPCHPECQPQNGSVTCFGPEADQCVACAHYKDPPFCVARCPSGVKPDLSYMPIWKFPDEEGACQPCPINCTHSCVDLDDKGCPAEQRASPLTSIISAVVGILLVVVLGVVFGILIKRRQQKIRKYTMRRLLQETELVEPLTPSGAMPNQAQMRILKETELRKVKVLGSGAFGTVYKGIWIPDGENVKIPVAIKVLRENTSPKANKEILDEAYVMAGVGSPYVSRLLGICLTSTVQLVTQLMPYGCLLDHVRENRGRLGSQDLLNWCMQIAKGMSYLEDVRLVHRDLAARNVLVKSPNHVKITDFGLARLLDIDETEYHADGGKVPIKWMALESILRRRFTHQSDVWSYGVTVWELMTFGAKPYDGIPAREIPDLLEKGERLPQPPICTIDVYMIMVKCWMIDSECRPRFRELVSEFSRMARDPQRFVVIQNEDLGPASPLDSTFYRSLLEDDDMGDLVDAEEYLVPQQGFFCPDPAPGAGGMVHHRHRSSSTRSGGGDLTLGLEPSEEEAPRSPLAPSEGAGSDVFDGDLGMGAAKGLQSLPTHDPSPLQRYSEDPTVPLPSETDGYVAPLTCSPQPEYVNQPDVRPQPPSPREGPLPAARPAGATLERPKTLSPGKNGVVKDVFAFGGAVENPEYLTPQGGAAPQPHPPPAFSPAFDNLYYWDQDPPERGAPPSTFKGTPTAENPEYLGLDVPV
# Procedure, shortened: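 BT-474 cells treated 4 h at 37 °C, 5% CO2 with four-fold dilutions (10 μM to 0.01 nM final). Lysates analysed by ELISA for pERBB2, TMB read at OD 450 nm. % relative activity normalised to no-cell (low) and 0.1% DMSO-treated (high) controls.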
Compound,GI50 (Ba/F3 ERBB2 YVMA) [nM],IC50 [1] [nM],IC50 [2] [nM]
"C=CC(=O)N1CCC[C@H](Nc2ccc3ncnc(Nc4ccc(Oc5ccn6ncnc6c5)c(C)c4)c3n2)C1 [Compound 41, (S)-1-(3-((4-((4-([1,2,4]triazolo[1,5-a]pyridin-7-yloxy)-3-methylphenyl)amino)pyrido[3,2-d]pyrimidin-6-yl)amino)piperidin-1-yl)prop-2-en-1-one]",19.7,1590,18.1
"C=CC(=O)N1CCN(c2ccc3ncnc(Nc4ccc(Cc5ccc6c(c5)ncn6C)c(C)c4)c3n2)C[C@H]1C [Compound 53, 1-[(2R)-2-methyl-4-[4-({3-methyl-4-[(1-methyl-1,3-benzodiazol-5-yl)methyl]phenyl}amino)pyrido[3,2-d]pyrimidin-6-yl]piperazin-1-yl]prop-2-en-1-one]",14,1460,35.4
"C=CC(=O)N1CCN(c2ccc3ncnc(Nc4ccc(Cc5ccn6ncnc6c5)c(C)c4)c3c2)C[C@H]1C [Compound 112, (R)-1-(4-(4-((4-([1,2,4]triazolo[1,5-a]pyridin-7-ylmethyl)-3-methylphenyl)amino)quinazolin-6-yl)-2-methylpiperazin-1-yl)prop-2-en-1-one]",28,> 10000,33.1
"C=CC(=O)N1CCN(c2cc3c(Nc4ccc(Oc5ccc6c(c5)ncn6C)c(C)c4)ncnc3cn2)C[C@H]1C [Compound 59, 1-[(2R)-2-methyl-4-[4-({3-methyl-4-[(1-methyl-1,3-benzodiazol-5-yl)oxy]phenyl}amino)pyrido[3,4-d]pyrimidin-6-yl]piperazin-1-yl]prop-2-en-1-one]",27.4,3800,20.1
"C=CC(=O)N1CCN(c2ncc3ncnc(Nc4ccc(Oc5ccc6c(c5)ncn6C)c(C)c4)c3n2)[C@@H](C)C1 [Compound 76, 1-[(3S)-3-methyl-4-[8-({3-methyl-4-[(1-methyl-1,3-benzodiazol-5-yl)oxy]phenyl}amino)-[1,3]diazino[5,4-d]pyrimidin-2-yl]piperazin-1-yl]prop-2-en-1-one]",10,2000,24.5
"C=CC(=O)N1CCN(c2ccc3ncnc(Nc4ccc(Oc5ccc6c(c5)ncn6C)c(C)c4)c3n2)C[C@@H]1C [Compound 47, 1-[(2S)-2-methyl-4-[4-({3-methyl-4-[(1-methyl-1,3-benzodiazol-5-yl)oxy]phenyl}amino)pyrido[3,2-d]pyrimidin-6-yl]piperazin-1-yl]prop-2-en-1-one]",14,2440,30
"C=CC(=O)N1CCN(c2ccc3ncnc(Nc4ccc(Oc5ccn6ncnc6c5)c(C)c4)c3c2)C[C@H]1C [Compound 35, 1-[(2R)-2-methyl-4-{4-[(3-methyl-4-{[1,2,4]triazolo[1,5-a]pyridin-7-yloxy}phenyl)amino]quinazolin-6-yl}piperazin-1-yl]prop-2-en-1-one]",7.88,823,13.6
"CC#CC(=O)N1CCN(c2ccc3ncnc(Nc4ccc(Oc5ccc6c(c5)ncn6C)c(C)c4)c3n2)C[C@H]1C [Compound 65, 1-[(2R)-2-methyl-4-[4-({3-methyl-4-[(1-methyl-1,3-benzodiazol-5-yl)oxy]phenyl}amino)pyrido[3,2-d]pyrimidin-6-yl]piperazin-1-yl]but-2-yn-1-one]",4.38,2790,29.3
"C=CC(=O)N1CCN(c2ccc3ncnc(Nc4ccc(Oc5ccn6ncnc6c5)c(C)c4)c3c2)[C@@H](C)C1 [Compound 90, (S)-1-(4-(4-((4-([1,2,4]triazolo[1,5-a]pyridin-7-yloxy)-3-methylphenyl)amino)quinazolin-6-yl)-3-methylpiperazin-1-yl)prop-2-en-1-one]",12,3230,14.4
"C=CC(=O)N1CCN(c2ccc3ncnc(Nc4ccc(Oc5ccn6ncnc6c5)c(C)c4)c3n2)CC1 [Compound 4, 1-(4-{4-[(3-methyl-4-{[1,2,4]triazolo[1,5-a]pyridin-7-yloxy}phenyl)amino]pyrido[3,2-d]pyrimidin-6-yl}piperazin-1-yl)prop-2-en-1-one]",8.19,371,8.44
